Source: PubChem BioAssay (NCI)
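Cells were grown in 96-well plates and exposed to each compound for 48 hours at five concentrations; endpoints were interpolated linearly between bracketing concentrations, or set to the highest concentration if not reached. TGI is the concentration that stops growth completely.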

Columns and labels:
Experiment in all cases: NCI anticancer screen, dose series, 48 h
[1] = test system: SK-MEL-5 melanoma
[2] = test system: SW-620 colon
[3] = test system: SK-MEL-2 melanoma
[4] = test system: OVCAR-8 ovarian
[5] = test system: TK-10 renal
[6] = test system: HCT-15 colon
[7] = test system: KM12 colon
[8] = test system: EKVX NSCLC
[9] = test system: NCI-H23 lung
[10] = test system: UACC-257 melanoma
[11] = test system: OVCAR-4 ovarian
[12] = test system: SR leukemia
[13] = test system: MCF7 breast
[14] = test system: LOX IMVI melanoma
[15] = test system: DU-145 prostate
[16] = test system: HCC-2998 colon
[17] = test system: OVCAR-5 ovarian
[18] = test system: NCI-H460 lung
[19] = test system: A549 NSCLC
[20] = test system: SK-MEL-28 melanoma
[21] = test system: ACHN renal
[22] = test system: IGROV1 ovarian
[23] = test system: HT29 colon
[24] = test system: HOP-62 NSCLC
[25] = test system: MDA-N
[26] = test system: HS 578T breast
[27] = test system: UACC-62 melanoma
[28] = test system: PC-3 prostate
[29] = test system: SNB-75 CNS
[30] = test system: OVCAR-3 ovarian
[31] = test system: K-562 leukemia
[32] = test system: CAKI-1 renal
[33] = test system: MDA-MB-435
[34] = test system: HOP-92 NSCLC
[35] = test system: M14 melanoma
[36] = test system: BT-549 breast
[37] = test system: MOLT-4 leukemia
[38] = test system: MDA-MB-231 breast
[39] = test system: MALME-3M melanoma
[40] = test system: T-47D breast
[41] = test system: 786-0 renal
[42] = test system: SF-268 CNS
[43] = test system: UO-31 renal
[44] = test system: SF-295 CNS
[45] = test system: SN12C renal
[46] = test system: SNB-19 CNS
[47] = test system: NCI/ADR-RES ovarian
[48] = test system: A498 renal
[49] = test system: U251 CNS
[50] = test system: HCT-116 colon
[51] = test system: NCI-H522 lung
[52] = test system: RXF 393 renal
[53] = test system: NCI-H226 lung
[54] = test system: CCRF-CEM leukemia
[55] = test system: SF-539 CNS
[56] = test system: HL-60(TB) leukemia
[57] = test system: SK-OV-3 ovarian
[58] = test system: COLO 205 colon
[59] = test system: RPMI-8226 leukemia

N=C(N)c1ccc(/C=C/c2ccc(C(=N)N)cc2)cc1
TGI [1]: > 100 µM
TGI [2]: > 100 µM
TGI [3]: 87.3 µM
TGI [4]: > 100 µM
TGI [5]: 65.2 µM
TGI [6]: > 100 µM
TGI [7]: > 100 µM
TGI [8]: > 100 µM
TGI [9]: > 100 µM
TGI [10]: > 100 µM
TGI [11]: > 100 µM
TGI [12]: > 100 µM
TGI [13]: > 100 µM
TGI [14]: > 100 µM
TGI [15]: > 100 µM
TGI [16]: > 100 µM
TGI [17]: > 100 µM
TGI [18]: > 100 µM
TGI [19]: > 100 µM
TGI [20]: > 100 µM
TGI [21]: > 100 µM
TGI [22]: > 100 µM
TGI [23]: > 100 µM
TGI [24]: > 100 µM
TGI [25]: > 100 µM
TGI [26]: > 100 µM
TGI [27]: > 100 µM
TGI [28]: > 100 µM
TGI [29]: > 100 µM
TGI [30]: > 100 µM
TGI [31]: > 100 µM
TGI [32]: > 100 µM
TGI [33]: > 100 µM
TGI [34]: > 100 µM
TGI [35]: > 100 µM
TGI [36]: > 100 µM
TGI [37]: > 100 µM
TGI [38]: > 100 µM
TGI [39]: > 100 µM
TGI [40]: > 100 µM
TGI [41]: > 100 µM
TGI [42]: > 100 µM
TGI [43]: > 100 µM
TGI [44]: > 100 µM
TGI [45]: > 100 µM
TGI [46]: > 100 µM
TGI [47]: > 100 µM
TGI [48]: 73.7 µM
TGI [49]: > 100 µM
TGI [50]: > 100 µM
TGI [51]: > 100 µM
TGI [52]: > 100 µM
TGI [53]: > 100 µM
TGI [54]: > 100 µM

CSC(=N/C=C/c1ccccc1)SC
TGI [2]: > 100 µM
TGI [55]: > 100 µM
TGI [3]: > 100 µM
TGI [4]: > 100 µM
TGI [6]: > 100 µM
TGI [7]: > 100 µM
TGI [8]: > 100 µM
TGI [9]: > 100 µM
TGI [10]: > 100 µM
TGI [11]: > 100 µM
TGI [12]: > 100 µM
TGI [13]: > 100 µM
TGI [14]: > 100 µM
TGI [15]: > 100 µM
TGI [56]: > 100 µM
TGI [17]: > 100 µM
TGI [18]: > 100 µM
TGI [19]: > 100 µM
TGI [20]: > 100 µM
TGI [21]: > 100 µM
TGI [22]: > 100 µM
TGI [23]: > 100 µM
TGI [24]: > 100 µM
TGI [25]: > 100 µM
TGI [26]: > 100 µM
TGI [27]: > 100 µM
TGI [28]: > 100 µM
TGI [29]: > 100 µM
TGI [30]: > 100 µM
TGI [31]: > 100 µM
TGI [32]: > 100 µM
TGI [33]: > 100 µM
TGI [34]: > 100 µM
TGI [35]: > 100 µM
TGI [36]: > 100 µM
TGI [37]: > 100 µM
TGI [38]: > 100 µM
TGI [39]: > 100 µM
TGI [40]: > 100 µM
TGI [41]: > 100 µM
TGI [42]: > 100 µM
TGI [57]: > 100 µM
TGI [43]: > 100 µM
TGI [44]: > 100 µM
TGI [58]: > 100 µM
TGI [45]: > 100 µM
TGI [46]: > 100 µM
TGI [59]: > 100 µM
TGI [47]: > 100 µM
TGI [48]: > 100 µM
TGI [49]: > 100 µM
TGI [50]: > 100 µM
TGI [51]: > 100 µM
TGI [52]: > 100 µM
TGI [53]: > 100 µM
TGI [54]: > 100 µM

O=C(OCc1ccccc1)N(CCCCN(CCCNC(=O)C(F)(F)F)C(=O)OCc1ccccc1)CCCNC(=O)C(F)(F)F
TGI [1]: > 100 µM
TGI [2]: > 100 µM
TGI [55]: > 100 µM
TGI [3]: > 100 µM
TGI [4]: > 100 µM
TGI [5]: > 100 µM
TGI [6]: > 100 µM
TGI [7]: > 100 µM
TGI [8]: > 100 µM
TGI [9]: > 100 µM
TGI [10]: > 100 µM
TGI [11]: > 100 µM
TGI [12]: > 100 µM
TGI [13]: > 100 µM
TGI [14]: > 100 µM
TGI [15]: > 100 µM
TGI [16]: > 100 µM
TGI [56]: > 100 µM
TGI [17]: > 100 µM
TGI [18]: > 100 µM
TGI [19]: > 100 µM
TGI [20]: > 100 µM
TGI [21]: > 100 µM
TGI [22]: > 100 µM
TGI [23]: > 100 µM
TGI [24]: > 100 µM
TGI [25]: > 100 µM
TGI [26]: > 100 µM
TGI [27]: > 100 µM
TGI [28]: > 100 µM
TGI [29]: > 100 µM
TGI [30]: > 100 µM
TGI [31]: > 100 µM
TGI [32]: 3.55 µM
TGI [33]: > 100 µM
TGI [34]: > 100 µM
TGI [35]: > 100 µM
TGI [36]: > 100 µM
TGI [37]: > 100 µM
TGI [38]: > 100 µM
TGI [40]: > 100 µM
TGI [41]: > 100 µM
TGI [42]: > 100 µM
TGI [57]: > 100 µM
TGI [43]: > 100 µM
TGI [44]: > 100 µM
TGI [58]: > 100 µM
TGI [45]: > 100 µM
TGI [46]: > 100 µM
TGI [59]: > 100 µM
TGI [47]: > 100 µM
TGI [48]: > 100 µM
TGI [49]: > 100 µM
TGI [50]: > 100 µM
TGI [51]: > 100 µM
TGI [52]: > 100 µM
TGI [53]: > 100 µM
TGI [54]: > 100 µM
